Measurements taken from US20230112418A1, “COMPOUND AND RADIOACTIVE LABELING COMPOUND” (NIHON MEDI-PHYSICS CO., LTD., priority 2020, published 2023).

How the values were obtained:
[1] = tested on: LNCaP cells (PSMA positive); experiment: Evaluation of binding using cultured cells (LNCaP); format: cell-based, human; conditions: FIG. 4
Protocol: LNCaP cells (PSMA positive, human prostate cancer) and PC-3 cells (PSMA negative, human prostate cancer) were used. These cells were purchased from American Type Culture Collection and DS Biomedical, respectively. The LNCaP cells and the PC-3 cells were each cultured in RPMI 1640 containing antibiotics (penicillin and streptomycin) and 10% inactivated fetal bovine serum, manufactured by Nacalai Tesque, Inc. at 37° C. under 5% CO2.
The LNCaP cells and the PC-3 cells were each seeded in a 12 well plate at 4.0×10^5 cells/well, and allowed to stand at 37° C. under 5% CO2 for 48 hours.
The culture medium was removed, and an assay medium (0.5% FBS-containing RPMI 1640 medium) solution (1 mL) containing [^111In]In-PSMA-DA1 or [^111In]In-PSMA-DB (37 kBq) was added to the residue. Thereafter, the plate was allowed to stand at 37° C. under 5% CO2 for one hour. […]
The radioactivity of each of the assay medium and the cell lysate was measured with a gamma counter. Separately from this, the total protein concentration in the cell lysate was calculated using a BCA Protein Assay Kit manufactured by Thermo Fisher Scientific. A value (% ID/mg protein) obtained by dividing the percentage (% ID) of the amount of radioactivity of a sample to the amount of added radioactivity by the total protein mass was calculated for each sample.
Data was expressed as mean±standard deviation. […]

[2] = biological target: human serum albumin (HSA) (Homo sapiens, UniProt P02768); experiment: Evaluation of binding to albumin (spin column), HSA solution and PBS; conditions: FIG. 5
Sequence of human serum albumin (HSA) (P02768 25-609): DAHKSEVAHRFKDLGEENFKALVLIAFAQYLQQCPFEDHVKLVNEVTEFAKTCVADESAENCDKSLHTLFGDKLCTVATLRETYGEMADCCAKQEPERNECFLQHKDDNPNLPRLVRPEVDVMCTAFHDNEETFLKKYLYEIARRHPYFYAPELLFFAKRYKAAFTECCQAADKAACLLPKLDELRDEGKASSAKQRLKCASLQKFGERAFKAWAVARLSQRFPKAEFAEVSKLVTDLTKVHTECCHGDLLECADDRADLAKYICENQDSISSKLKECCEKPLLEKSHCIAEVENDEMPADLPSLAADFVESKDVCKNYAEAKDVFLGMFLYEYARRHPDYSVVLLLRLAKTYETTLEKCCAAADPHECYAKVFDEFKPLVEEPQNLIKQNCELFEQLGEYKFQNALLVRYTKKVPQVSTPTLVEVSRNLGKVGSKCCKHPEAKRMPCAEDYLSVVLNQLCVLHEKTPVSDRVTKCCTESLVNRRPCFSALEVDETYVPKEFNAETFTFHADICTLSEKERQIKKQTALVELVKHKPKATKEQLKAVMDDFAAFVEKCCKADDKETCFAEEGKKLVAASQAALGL
Protocol: Thereafter, the reaction liquid was added to a spin column (Sephadex G-100 manufactured by Cytiva), and centrifuged at 1500×g at 4° C. for two minutes. After the separation, the radioactivity of each of the column and the eluate was measured with a gamma counter.
Data was expressed as mean±standard deviation. A significant difference test was performed using Student's t-test, and a result of p<0.05 was defined to have a significant difference.
The higher a value, the higher binding property to albumin.
Thereafter, the reaction liquid was added to a spin column (Sephadex G-100 manufactured by Cytiva), and centrifuged at 1500×g at 4° C. for two minutes. After the centrifugation, the radioactivity of each of the column and the eluate was measured with a gamma counter.

SMILES: O=C([O-])CN1CCN(C(CCC(=O)NCCCC[C@H](NC(=O)N[C@@H](CCC(=O)O)C(=O)O)C(=O)O)C(=O)[O-])CCN(CC(=O)[O-])CCN(C(CCC(=O)Nc2ccccc2)C(=O)[O-])CC1.[111In+3] (stereo partly drawn) [[^111In]In-PSMA-DB]
- Effect of excess 2-PMPA on binding (in words) ([1]; 2-PMPA 100 μM): significantly reduced
- Binding property LNCaP vs PC-3 cells (in words) [1]: higher binding property to the LNCaP cells than the PC-3 cells
- Radioactivity in the eluate, PBS (in words) [2]: no significant radioactivity was observed in the eluate
